Key:
Format in all cases: in vivo
[1] = tested on: barnyardgrass (Echinochloa crus-galli L.): ECHCC; test: Test Example 1: pre-emergence herbicidal activity (growth controlling degree); details: 20th to 21st day after application
From the text: (§1) Upland field soil was put into a 1/170,000 ha pot, and seeds of various plants [1. barnyardgrass (Echinochloa crus-galli L.): ECHCC, 2. crabgrass (Digitaria sanguinalis L.): DIGSA, 3. green foxtail (Setaria viridis L.): SETVI, 4. redroot pigweed (Amaranthus retroflexus L.): AMARE, 5. prickly sida (Sida spinosa L.): SIDSP, 6. velvetleaf (Abutilon theophrasti): ABUTH, 7. common cocklebur (Xanthium strumarium L.): XANST, 8. rice (Oryza sativa L.): ORYSA, 9. wheat (Triticum aestivum L.): TRZAX, 10. corn (Zea mays L.): ZEAMX, 11. soybean (Glycine max Merr.): GLXMA] were sown. Then, one day after the sowing, a wettable powder or emulsifiable concentrate having the compound of the present invention formulated in accordance with a usual formulation method, was weighed so that the active ingredient would be a predetermined amount, and diluted with water in an amount of 500 L/ha. The herbicide adjusted was applied by a small size sprayer for pre-emergence treatment. On the 20th to 21st day after the application of the herbicide, the growth of the respective plants was visually observed, and the herbicidal effects were evaluated by growth controlling degrees (%) ranging from 0 (equivalent to the untreated control) to 100 (complete kill), whereby the results shown in Table 11, were obtained. Compound Nos. in Table 11 correspond to Compound Nos. in Table 1 to 7 given hereinbefore.

[2] = tested on: common cocklebur (Xanthium strumarium L.): XANST; test: as above; details: 20th to 21st day after application
From the text: as §1

[3] = tested on: corn (Zea mays L.): ZEAMX; test: as above; details: 20th to 21st day after application
From the text: as §1

[4] = tested on: crabgrass (Digitaria sanguinalis L.): DIGSA; test: as above; details: 20th to 21st day after application
From the text: as §1

[5] = tested on: green foxtail (Setaria viridis L.): SETVI; test: as above; details: 20th to 21st day after application
From the text: as §1

[6] = tested on: prickly sida (Sida spinosa L.): SIDSP; test: as above; details: 20th to 21st day after application
From the text: as §1

[7] = tested on: redroot pigweed (Amaranthus retroflexus L.): AMARE; test: as above; details: 20th to 21st day after application
From the text: as §1

[8] = tested on: rice (Oryza sativa L.): ORYSA; test: as above; details: 20th to 21st day after application
From the text: as §1

[9] = tested on: soybean (Glycine max Merr.): GLXMA; test: as above; details: 20th to 21st day after application
From the text: as §1

[10] = tested on: velvetleaf (Abutilon theophrasti): ABUTH; test: as above; details: 20th to 21st day after application
From the text: as §1

[11] = tested on: barnyardgrass (Echinochloa crus-galli L.), ECHCG; test: Test Example 2: post-emergence (foliage treatment) herbicidal activity (growth controlling degree); details: 1.8-2.4 leaf stage; for pest or weed control at 63 g/ha / pest or weed control at 31 g/ha: Echinochloa crus-galli, 504 h; for pest or weed control at 63 g/ha: 63 g a.i./ha
From the text: (§2) Upland field soil was put into a 1/170,000 ha pot, and seeds of various plants were sown. Then, when the plants reached predetermined leaf stages [I. barnyardgrass (Echinochloa crus-galli L.), ECHCG: 1.8-2.4 leaf stage, 2. crabgrass (Digitaria sanguinalis L.), DIGSA: 1.5-2.2 leaf stage, 3. green foxtail (Setaria viridis L.), SETVI: 1.7-2.5 leaf stage, 4. redroot pigweed (Amaranthus retroflexus L.), AMARE: 0.1-0.3 leaf stage, 5. prickly sida (Sida spinosa L.), SIDSP: 0.3-0.5 leaf stage, 6. velvetleaf (Abutilon theophrasti), ABUTH: 0.3-0.4 leaf stage, 7. common cocklebur (Xanthium strumarium L.), XANST: 0.2-0.6 leaf stage, 8. rice (Oryza sativa L.), ORYSA: 1.6-2.2 leaf stage, 9. wheat (Triticum aestivum L.), TRZAX: 2.8 leaf stage, 10. corn (Zea mays L.), ZEAMX: 2.2-2.5 leaf stage, 11. soybean (Glycine max Merr.), GLXMA: 0.2-0.3 leaf stage], a wettable powder or emulsifiable concentrate having the compound of the present invention formulated in accordance with a usual formulation method, was weighed so that the active ingredient would be a predetermined amount, and diluted with water in an amount of 500 L/ha. To the diluted solution, 0.1%(v/v) of an agricultural spreader was added. The herbicide adjusted was applied by a small size sprayer for foliage treatment. On the […] day after the application of the herbicide, the growth of the respective plants was visually observed, and the herbicidal effects were evaluated by growth controlling degrees (%) ranging from 0 (equivalent to the untreated control) to 100 (complete kill), whereby the results shown in Table 12, were obtained. Compound Nos. in Table 12 correspond to Compound Nos. in Table 1 to 7 given hereinbefore.

[12] = tested on: common cocklebur (Xanthium strumarium L.), XANST; test: as above; details: 0.2-0.6 leaf stage; for pest or weed control at 63 g/ha / pest or weed control at 31 g/ha: Xanthium strumarium, 504 h; for pest or weed control at 63 g/ha: 63 g a.i./ha
From the text: as §2

[13] = tested on: corn (Zea mays L.), ZEAMX; test: as above; details: 2.2-2.5 leaf stage; for plant injury at 63 g/ha / plant injury at 31 g/ha: Zea mays, 504 h; for plant injury at 63 g/ha: 63 g a.i./ha
From the text: as §2

[14] = tested on: crabgrass (Digitaria sanguinalis L.), DIGSA; test: as above; details: 1.5-2.2 leaf stage; for pest or weed control at 63 g/ha / pest or weed control at 31 g/ha: Digitaria sanguinalis, 504 h, read-out: growth controlling degree, DIGSP; for pest or weed control at 63 g/ha: 63 g a.i./ha
From the text: as §2

[15] = tested on: green foxtail (Setaria viridis L.), SETVI; test: as above; details: 1.7-2.5 leaf stage; for pest or weed control at 63 g/ha / pest or weed control at 31 g/ha: Setaria viridis, 504 h; for pest or weed control at 63 g/ha: 63 g a.i./ha
From the text: as §2

[16] = tested on: prickly sida (Sida spinosa L.), SIDSP; test: as above; details: 0.3-0.5 leaf stage; for pest or weed control at 63 g/ha / pest or weed control at 31 g/ha: Sida spinosa, 504 h; for pest or weed control at 63 g/ha: 63 g a.i./ha
From the text: as §2

[17] = tested on: rice (Oryza sativa L.), ORYSA; test: as above; details: 1.6-2.2 leaf stage; for plant injury at 63 g/ha / plant injury at 31 g/ha: Oryza sativa, 504 h; for plant injury at 63 g/ha: 63 g a.i./ha
From the text: as §2

[18] = tested on: soybean (Glycine max Merr.), GLXMA; test: as above; details: 0.2-0.3 leaf stage; for pest or weed control at 63 g/ha / pest or weed control at 31 g/ha: Glycine max, 504 h; for pest or weed control at 63 g/ha: 63 g a.i./ha
From the text: as §2

[19] = tested on: velvetleaf (Abutilon theophrasti), ABUTH; test: as above; details: 0.3-0.4 leaf stage; for pest or weed control at 63 g/ha / pest or weed control at 31 g/ha: Abutilon theophrasti, 504 h; for pest or weed control at 63 g/ha: 63 g a.i./ha
From the text: as §2

[20] = tested on: redroot pigweed (Amaranthus retroflexus L.), AMARE; test: as above; details: 0.1-0.3 leaf stage
From the text: as §2

SMILES	growth controlling degree, ECHCG ([1]; 250 g a.i./ha) [%]	growth controlling degree, XANST ([2]; 250 g a.i./ha) [%]	growth controlling degree, ZEAMX ([3]; 250 g a.i./ha) [%]	growth controlling degree, DIGSP ([4]; 250 g a.i./ha) [%]	growth controlling degree, SETVI ([5]; 250 g a.i./ha) [%]	growth controlling degree, SIDSP ([6]; 250 g a.i./ha) [%]	growth controlling degree, AMARE ([7]; 250 g a.i./ha) [%]	growth controlling degree, ORYSA ([8]; 250 g a.i./ha) [%]	growth controlling degree, GLXMA ([9]; 250 g a.i./ha) [%]	growth controlling degree, ABUTH ([10]; 250 g a.i./ha) [%]	pest or weed control at 63 g/ha [11] [%]	pest or weed control at 63 g/ha [12] [%]	plant injury at 63 g/ha [13] [%]	pest or weed control at 63 g/ha [14] [%]	pest or weed control at 63 g/ha [15] [%]	pest or weed control at 63 g/ha [16] [%]	plant injury at 63 g/ha [17] [%]	pest or weed control at 63 g/ha [18] [%]	pest or weed control at 63 g/ha [19] [%]	growth controlling degree, AMARE ([20]; 31 g a.i./ha) [%]	further results
Fc1cc(Cl)c2c(c1-c1ncc(C(F)(F)F)cc1Cl)CCCO2 [Compound 7-2, 3-chloro-2-(8-chloro-6-fluoro-3,4-dihydro-2H-1-benzopyran-5-yl)-5-(trifluoromethyl)-pyridine]	100	50	60	100	100	100	100	50	50	100	80	70	90	95	100	100	60	60	100	–	–
CC1CCc2c(c(Cl)cc(F)c2-c2nn(C)c(OC(F)F)c2Cl)O1 (stereo not drawn) [Compound 1-39]	100	100	70	100	100	100	100	50	30	100	–	–	–	–	–	–	–	–	–	100	pest or weed control at 31 g/ha ([11]; 31 g a.i./ha): 100%; pest or weed control at 31 g/ha ([12]; 31 g a.i./ha): 100%; plant injury at 31 g/ha ([13]; 31 g a.i./ha): 98%; pest or weed control at 31 g/ha ([14]; 31 g a.i./ha): 100%; pest or weed control at 31 g/ha ([15]; 31 g a.i./ha): 100%; pest or weed control at 31 g/ha ([16]; 31 g a.i./ha): 100%; plant injury at 31 g/ha ([17]; 31 g a.i./ha): 98%; pest or weed control at 31 g/ha ([18]; 31 g a.i./ha): 100%; pest or weed control at 31 g/ha ([19]; 31 g a.i./ha): 100%
CCCCCC1CCc2c(c(Cl)cc(F)c2-c2nn(C)c(OC(F)F)c2Cl)O1 (stereo not drawn) [Compound 1-101]	–	–	–	–	–	–	–	–	–	–	–	–	–	–	–	–	–	–	–	100	growth controlling degree, ECHCG ([1]; 125 g a.i./ha): 80%; growth controlling degree, XANST ([2]; 125 g a.i./ha): 30%; growth controlling degree, ZEAMX ([3]; 125 g a.i./ha): 40%; growth controlling degree, DIGSP ([4]; 125 g a.i./ha): 100%; growth controlling degree, SETVI ([5]; 125 g a.i./ha): 100%; growth controlling degree, SIDSP ([6]; 125 g a.i./ha): 80%; growth controlling degree, AMARE ([7]; 125 g a.i./ha): 100%; growth controlling degree, ORYSA ([8]; 125 g a.i./ha): 30%; growth controlling degree, GLXMA ([9]; 125 g a.i./ha): 10%; growth controlling degree, ABUTH ([10]; 125 g a.i./ha): 60%; growth controlling degree, ECHCG ([11]; 31 g a.i./ha): 100%; growth controlling degree, XANST ([12]; 31 g a.i./ha): 100%; growth controlling degree, ZEAMX ([13]; 31 g a.i./ha): 70%; growth controlling degree, DIGSP ([14]; 31 g a.i./ha): 100%; growth controlling degree, SETVI ([15]; 31 g a.i./ha): 100%; growth controlling degree, SIDSP ([16]; 31 g a.i./ha): 100%; growth controlling degree, ORYSA ([17]; 31 g a.i./ha): 60%; growth controlling degree, GLXMA ([18]; 31 g a.i./ha): 70%; growth controlling degree, ABUTH ([19]; 31 g a.i./ha): 100%
Cn1nc(-c2c(F)cc(Cl)c3c2CCCO3)c(Cl)c1OC(F)F [Compound 1-33, 4-chloro-3-(8-chloro-6-fluoro-3,4-dihydro-2H-1-benzopyran-5-yl)-5-(difluoromethoxy)-1-methyl-1H-pyrazole]	–	–	–	–	–	–	–	–	–	–	100	100	100	100	100	100	98	100	100	–	growth controlling degree, ECHCG ([1]; 125 g a.i./ha): 100%; growth controlling degree, XANST ([2]; 125 g a.i./ha): 70%; growth controlling degree, ZEAMX ([3]; 125 g a.i./ha): 100%; growth controlling degree, DIGSP ([4]; 125 g a.i./ha): 100%; growth controlling degree, SETVI ([5]; 125 g a.i./ha): 100%; growth controlling degree, SIDSP ([6]; 125 g a.i./ha): 100%; growth controlling degree, AMARE ([7]; 125 g a.i./ha): 100%; growth controlling degree, ORYSA ([8]; 125 g a.i./ha): 70%; growth controlling degree, GLXMA ([9]; 125 g a.i./ha): 40%; growth controlling degree, ABUTH ([10]; 125 g a.i./ha): 100%; growth controlling degree, AMARE ([20]; 63 g a.i./ha): 100%
Fc1cc(Cl)c2c(c1-c1nn3c(c1Cl)CCCC3)CCCO2 [Compound 1-79, 3-chloro-2-(8-chloro-6-fluoro-3,4-dihydro-2H-1-benzopyran-5-yl)-4,5,6,7-tetrahydro-pyrazolo[1,5-a]pyridine]	100	–	10	–	–	80	100	30	30	60	–	–	–	–	–	–	–	–	–	90	pest or weed control at 31 g/ha ([11]; 31 g a.i./ha): 95%; pest or weed control at 31 g/ha ([12]; 31 g a.i./ha): 100%; plant injury at 31 g/ha ([13]; 31 g a.i./ha): 50%; pest or weed control at 31 g/ha ([14]; 31 g a.i./ha): 40%; pest or weed control at 31 g/ha ([15]; 31 g a.i./ha): 100%; pest or weed control at 31 g/ha ([16]; 31 g a.i./ha): 98%; plant injury at 31 g/ha ([17]; 31 g a.i./ha): 50%; pest or weed control at 31 g/ha ([18]; 31 g a.i./ha): 70%; pest or weed control at 31 g/ha ([19]; 31 g a.i./ha): 100%

Reference: US20040157738A1, “Novel oxygen containing fused cyclic derivatives and herbicidal, desiccant and defoliate compositions containing them” (ISHIHARA SANGYO KAISHA, LTD., priority 2003, published 2004)
